From US20120040966A1, “ANTI-VIRAL COMPOUNDS, TREATMENT, AND ASSAY” (priority 2008, published 2012)

These compounds were tested on influenza strain A/VN/1203/2004 (H5N1) (assay: microbe, parasite or virus in culture). Details: Influenza A virus, H5N1, MDCK, 72 h, read-out: H5N1 EC50 (@ 50% Via).
Assay type: cell-based, Influenza A virus (H5N1)

Point of comparison: COc1ccc(C2NC(=O)NC3=C2CN(C(=O)CSCC(O)CO)c2ccccc23)cc1Br (stereo not drawn) [compound 25412], EC50 0.893 µM. Against it:
- CCC(=O)N1CC2=C(NC(=O)NC2c2ccc(OC)c(Br)c2)c2ccccc21 (stereo not drawn) [compound 23205] — 4.6-fold lower, 0.193 µM
- COc1ccc(C2NC(=O)NC3=C2CN(C(=O)COC(C)=O)c2ccccc23)cc1Br (stereo not drawn) [compound 23206] — 41-fold lower, 0.022 µM
- COc1ccc(C2NC(=O)NC3=C2CN(C(=O)c2ccco2)c2ccccc23)cc1Br (stereo not drawn) [compound 23209] — higher, > 40 µM
- COc1ccc(C2NC(=O)NC3=C2COc2ccccc23)cc1C (stereo not drawn) [compound 23210] — 2.7-fold lower, 0.332 µM
- COc1ccc(C2NC(=O)NC3=C2CN(C(=O)CN2CCOCC2)c2ccccc23)cc1Br (stereo not drawn) [compound 23272] — 10-fold higher, 9.1 µM
- COc1ccc(C2NC(=O)NC3=C2CN(C(=O)c2ccc4c(c2)OCO4)c2ccccc23)cc1Br (stereo not drawn) [compound 23274] — higher, > 40 µM
- COc1ccc(C2NC(O)NC3=C2CN(C(=O)CO)c2ccccc23)cc1Br (stereo not drawn) [compound 23275] — 330-fold lower, 0.0027 µM
- COc1ccc(C2NC(=O)NC3=C2CN(C(=O)CNCCO)c2ccccc23)cc1Br (stereo not drawn) [compound 24717] — 2.4-fold higher, 2.1 µM
- COc1ccc(C2NC(=O)NC3=C2CN(C(=O)CNC2CC2)c2ccccc23)cc1Br (stereo not drawn) [compound 24718] — 11-fold higher, 9.7 µM
- COc1ccc(C2NC(=O)NC3=C2CN(C(=O)CN(C)C)c2ccccc23)cc1Br (stereo not drawn) [compound 25012] — lower, < 0.33 µM
- COc1ccc(C2NC(=O)NC3=C2CN(C(=O)CNC(C)=O)c2ccccc23)cc1Br (stereo not drawn) [compound 25350] — 20-fold lower, 0.045 µM
- COC(=O)N1CC2=C(NC(=O)NC2c2ccc(OC)c(Br)c2)c2ccccc21 (stereo not drawn) [compound 25408] — 4.3-fold lower, 0.208 µM
- COc1ccc(C2NC(=O)NC3=C2CN(C(=O)CN2CCC2)c2ccccc23)cc1Br (stereo not drawn) [compound 25411] — within 1.5-fold, 0.814 µM
- COc1ccc(C2NC(=O)NC3=C2CN(C(=O)CSCCO)c2ccccc23)cc1Br (stereo not drawn) [compound 25413] — 4.9-fold higher, 4.4 µM
- COc1ccc(C2NC(=O)NC3=C2CN(C(=O)CNC(=O)CO)c2ccccc23)cc1Br (stereo not drawn) [compound 25414] — 3.2-fold lower, 0.277 µM

Same assay, conditions: Influenza A virus, H5N1, MDCK, 72 h, read-out: H5N1 EC50 (Inf Pt)

Point of comparison: COc1ccc(C2NC(=O)NC3=C2CN(C(=O)CNCCO)c2ccccc23)cc1Br (stereo not drawn) [compound 24717], EC50 2.1 µM. Against it:
- CCOc1cccc(C2NC(=O)NC3=C2CCc2ccccc23)c1 (stereo not drawn) [compound 22520] — 3.4-fold higher, 7.1 µM
- CCC(=O)N1CC2=C(NC(=O)NC2c2ccc(OC)c(Br)c2)c2ccccc21 (stereo not drawn) [compound 23205] — 11-fold lower, 0.189 µM
- COc1ccc(C2NC(=O)NC3=C2CN(C(=O)COC(C)=O)c2ccccc23)cc1Br (stereo not drawn) [compound 23206] — 95-fold lower, 0.022 µM
- COc1ccc(C2NC(=O)NC3=C2CN(C(=O)c2ccco2)c2ccccc23)cc1Br (stereo not drawn) [compound 23209] — higher, > 40 µM
- COc1ccc(C2NC(=O)NC3=C2COc2ccccc23)cc1C (stereo not drawn) [compound 23210] — 6.8-fold lower, 0.307 µM
- COc1ccc(C2NC(=O)NC3=C2CN(C(=O)CN2CCOCC2)c2ccccc23)cc1Br (stereo not drawn) [compound 23272] — 4.1-fold higher, 8.7 µM
- COc1ccc(C2NC(=O)NC3=C2CN(C(=O)c2ccc4c(c2)OCO4)c2ccccc23)cc1Br (stereo not drawn) [compound 23274] — higher, > 40 µM
- COc1ccc(C2NC(O)NC3=C2CN(C(=O)CO)c2ccccc23)cc1Br (stereo not drawn) [compound 23275] — 780-fold lower, 0.0027 µM
- COc1ccc(C2NC(=O)NC3=C2CN(C(=O)CNC2CC2)c2ccccc23)cc1Br (stereo not drawn) [compound 24718] — 4.6-fold higher, 9.7 µM
- COc1ccc(C2NC(=O)NC3=C2CN(C(=O)CN(C)C)c2ccccc23)cc1Br (stereo not drawn) [compound 25012] — 10-fold lower, 0.2 µM
- COc1ccc(C2NC(=O)NC3=C2CN(C(=O)CNC(C)=O)c2ccccc23)cc1Br (stereo not drawn) [compound 25350] — 48-fold lower, 0.044 µM
- COC(=O)N1CC2=C(NC(=O)NC2c2ccc(OC)c(Br)c2)c2ccccc21 (stereo not drawn) [compound 25408] — 10-fold lower, 0.201 µM
- COc1ccc(C2NC(=O)NC3=C2CN(C(=O)CN2CCC2)c2ccccc23)cc1Br (stereo not drawn) [compound 25411] — 2.8-fold lower, 0.755 µM
- COc1ccc(C2NC(=O)NC3=C2CN(C(=O)CSCC(O)CO)c2ccccc23)cc1Br (stereo not drawn) [compound 25412] — 2.5-fold lower, 0.848 µM
- COc1ccc(C2NC(=O)NC3=C2CN(C(=O)CSCCO)c2ccccc23)cc1Br (stereo not drawn) [compound 25413] — 2.1-fold higher, 4.5 µM
- COc1ccc(C2NC(=O)NC3=C2CN(C(=O)CNC(=O)CO)c2ccccc23)cc1Br (stereo not drawn) [compound 25414] — 7.6-fold lower, 0.275 µM

Same assay, conditions: read-out: H5N1 EC50 (@ 50% Via)

COc1ccc(C2NC(=O)NC3=C2CN(C(=O)COC(C)=O)c2ccccc23)cc1Br (stereo not drawn) [compound 23206] showed an EC50 of 0.0119 µM.

Same assay, conditions: read-out: H5N1 EC50 (Inf Pt)

Work on COc1ccc(C2NC(=O)NC3=C2CN(C(=O)COC(C)=O)c2ccccc23)cc1Br (stereo not drawn) [compound 23206] yielded an EC50 of 0.0112 µM.

These compounds were tested on Influenza virus strain A/CA/04/2009 (H1N1) (assay: organism not typed). Details: MDCK, 72 h, read-out: H1N1 EC50 (@ 50% Via).
Assay type: cell-based

Point of comparison: COc1ccc(C2NC(=O)NC3=C2CN(C(=O)CN(C)C)c2ccccc23)cc1Br (stereo not drawn) [compound 25012], EC50 3 µM. Against it:
- CCOc1cccc(C2NC(=O)NC3=C2CCc2ccccc23)c1 (stereo not drawn) [compound 22520] — higher, > 50 µM
- CCC(=O)N1CC2=C(NC(=O)NC2c2ccc(OC)c(Br)c2)c2ccccc21 (stereo not drawn) [compound 23205] — 3.4-fold higher, 10.1 µM
- COc1ccc(C2NC(=O)NC3=C2CN(C(=O)COC(C)=O)c2ccccc23)cc1Br (stereo not drawn) [compound 23206] — 120-fold lower, 0.0257 µM
- COc1ccc(C2NC(=O)NC3=C2CN(C(=O)c2ccco2)c2ccccc23)cc1Br (stereo not drawn) [compound 23209] — higher, > 40 µM
- COc1ccc(C2NC(=O)NC3=C2COc2ccccc23)cc1C (stereo not drawn) [compound 23210] — within 1.5-fold, 3.1 µM
- COc1ccc(C2NC(=O)NC3=C2CN(C(=O)CN2CCOCC2)c2ccccc23)cc1Br (stereo not drawn) [compound 23272] — within 1.5-fold, 3.5 µM
- COc1ccc(C2NC(=O)NC3=C2CN(C(=O)c2ccc4c(c2)OCO4)c2ccccc23)cc1Br (stereo not drawn) [compound 23274] — higher, > 40 µM
- COc1ccc(C2NC(O)NC3=C2CN(C(=O)CO)c2ccccc23)cc1Br (stereo not drawn) [compound 23275] — lower, < 0.067 µM
- COc1ccc(C2NC(=O)NC3=C2CN(C(=O)CNCCO)c2ccccc23)cc1Br (stereo not drawn) [compound 24717] — 1.9-fold higher, 5.6 µM
- COc1ccc(C2NC(=O)NC3=C2CN(C(=O)CNC2CC2)c2ccccc23)cc1Br (stereo not drawn) [compound 24718] — 2.7-fold higher, 8 µM
- COc1ccc(C2NC(=O)NC3=C2CN(C(=O)CNC(C)=O)c2ccccc23)cc1Br (stereo not drawn) [compound 25350] — 4.8-fold lower, 0.622 µM
- COC(=O)N1CC2=C(NC(=O)NC2c2ccc(OC)c(Br)c2)c2ccccc21 (stereo not drawn) [compound 25408] — 3.2-fold higher, 9.7 µM
- COc1ccc(C2NC(=O)NC3=C2CN(C(=O)CN2CCC2)c2ccccc23)cc1Br (stereo not drawn) [compound 25411] — within 1.5-fold, 3.7 µM
- COc1ccc(C2NC(=O)NC3=C2CN(C(=O)CSCC(O)CO)c2ccccc23)cc1Br (stereo not drawn) [compound 25412] — within 1.5-fold, 3.1 µM
- COc1ccc(C2NC(=O)NC3=C2CN(C(=O)CSCCO)c2ccccc23)cc1Br (stereo not drawn) [compound 25413] — within 1.5-fold, 3.8 µM
- COc1ccc(C2NC(=O)NC3=C2CN(C(=O)CNC(=O)CO)c2ccccc23)cc1Br (stereo not drawn) [compound 25414] — higher, > 40 µM

These compounds were tested on Madin Darby Canine Kidney (MDCK) cells (assay: cells). Details: Canis lupus familiaris, MDCK, read-out: IC50 (toxicity).
Assay type: cell-based

CCOc1cccc(C2NC(=O)NC3=C2CCc2ccccc23)c1 (stereo not drawn) [compound 22520] and COc1ccc(C2NC(=O)NC3=C2COc2ccccc23)cc1C (stereo not drawn) [compound 23210] cannot be ordered by IC50: > 50 µM for the first, > 40 µM for the second.

CCC(=O)N1CC2=C(NC(=O)NC2c2ccc(OC)c(Br)c2)c2ccccc21 (stereo not drawn) [compound 23205] and COc1ccc(C2NC(=O)NC3=C2CN(C(=O)CN(C)C)c2ccccc23)cc1Br (stereo not drawn) [compound 25012] cannot be ordered by IC50: > 40 µM for the first, > 40 µM for the second.

COc1ccc(C2NC(=O)NC3=C2CN(C(=O)COC(C)=O)c2ccccc23)cc1Br (stereo not drawn) [compound 23206] and COc1ccc(C2NC(=O)NC3=C2CN(C(=O)CNC(C)=O)c2ccccc23)cc1Br (stereo not drawn) [compound 25350] cannot be ordered by IC50: > 40 µM for the first, > 40 µM for the second.

COc1ccc(C2NC(=O)NC3=C2CN(C(=O)c2ccco2)c2ccccc23)cc1Br (stereo not drawn) [compound 23209] and COC(=O)N1CC2=C(NC(=O)NC2c2ccc(OC)c(Br)c2)c2ccccc21 (stereo not drawn) [compound 25408] cannot be ordered by IC50: > 40 µM for the first, > 40 µM for the second.

COc1ccc(C2NC(=O)NC3=C2CN(C(=O)CN2CCOCC2)c2ccccc23)cc1Br (stereo not drawn) [compound 23272] and COc1ccc(C2NC(=O)NC3=C2CN(C(=O)CN2CCC2)c2ccccc23)cc1Br (stereo not drawn) [compound 25411] cannot be ordered by IC50: > 40 µM for the first, > 40 µM for the second.

COc1ccc(C2NC(=O)NC3=C2CN(C(=O)c2ccc4c(c2)OCO4)c2ccccc23)cc1Br (stereo not drawn) [compound 23274] and COc1ccc(C2NC(=O)NC3=C2CN(C(=O)CNC2CC2)c2ccccc23)cc1Br (stereo not drawn) [compound 24718] cannot be ordered by IC50: > 40 µM for the first, > 40 µM for the second.

COc1ccc(C2NC(O)NC3=C2CN(C(=O)CO)c2ccccc23)cc1Br (stereo not drawn) [compound 23275] and COc1ccc(C2NC(=O)NC3=C2CN(C(=O)CNC(=O)CO)c2ccccc23)cc1Br (stereo not drawn) [compound 25414] cannot be ordered by IC50: > 40 µM for the first, > 40 µM for the second.

COc1ccc(C2NC(=O)NC3=C2CN(C(=O)CNCCO)c2ccccc23)cc1Br (stereo not drawn) [compound 24717] and COc1ccc(C2NC(=O)NC3=C2CN(C(=O)CSCCO)c2ccccc23)cc1Br (stereo not drawn) [compound 25413] cannot be ordered by IC50: > 40 µM for the first, > 40 µM for the second.

In the case of COc1ccc(C2NC(=O)NC3=C2CN(C(=O)CSCC(O)CO)c2ccccc23)cc1Br (stereo not drawn) [compound 25412], the IC50 is reported as > 40 µM.
